One series concerns Candida albicans. Kind of series: Semi-quantitative screen of common buffers plus approx. 1.2 ppm PHMB for antimicrobial activity. Type of series: cell-based. The note with it: for log reduction: buffer of equal molarity plus approx. 1.2 ppm PHMB, Candida albicans approx. 4x10^5 cfu/ml, estimated visually, in duplicate; for log reduction / estimated relative antimicrobial activity: 4.0 hour exposure; for estimated relative antimicrobial activity: buffer plus approx. 1.2 ppm PHMB, Candida albicans. On the procedure: In this example common buffers plus approximately 1.2 ppm PHMB are evaluated for antimicrobial activity against Candida albicans. The pH and molarity of each solution was adjusted to approximately the same values. In that log reductions are estimated by visual observation of solution color and/or pellet formation in the bottom of the test tube, the test is semi-quantitative. All tests were performed in duplicate. All of the biological buffers shown in are described in Biochemicals and Reagents, Sigma-Aldrich CO., 2000-2001 edition Sigma-Aldrich, or online at URL sigma-aldrich.com.
Tubes of sterile solutions of buffer of equal molarity plus approxiamately 1.2 ppm PHMB are challenged with a suspension of Candida albicans at approx. 4×10^5 cfu/ml. Following 4.0 hour exposure, aliquots of each test solution are serially diluted to 10^−5 in DEB. Following approx. 40 hours incubation at ˜32° C., the tubes are observed for discoloration of the DEB and for a pellet in the 10^−5 tube. The entire study is then performed in duplicate.

The conditions of series [1]: cited from earlier work.

On to `NC(=O)CNCCS(=O)(=O)O` [ACES], for which the log reduction in the series on Candida albicans is recorded as under 1 log.
Still for that read-out and setting: the value for `NC(=O)CN(CC(=O)O)CC(=O)O` [ADA] was “NONE”; that for `O=S(=O)(O)CCN(CCO)CCO` [BES] was “NONE”.
In the case of `OCC(CO)(CO)NCCCNC(CO)(CO)CO` [BIS-TRIS propane, 1,3-bis(tris[hydroxymethyl]methylamino)propane], in the series with Candida albicans, the log reduction is recorded as 2-3 log and the “estimated relative antimicrobial activity” value is listed as “superior activity”. Further, in the series on Candida albicans (screening study of 15 biological buffers with polyhexamethylene biguanide or alexidine), the “antimicrobial activity compared with solutions employing any of the other buffering agents” value is on record as “significantly higher”. Moreover, in series [1] (aqueous solutions), the “pH range useful as a buffering agent” value is 6.3-9.3. In series [1] (dissociation constant), the pKa1 was 6.8 and the pKa2 is listed as 9.5.
On to `OCCN(CCO)C(CO)(CO)CO` [BIS-TRIS], for which, in the series on Candida albicans, the log reduction is reported as 1 log and the “estimated relative antimicrobial activity” value is given as “better activity than phosphate”.
As to `O=S(=O)(O)CC(O)CN(CCO)CCO` (stereo not shown) [DIPSO], in the series with Candida albicans, the log reduction is listed as under 1 log.
The same measure, in the same setting: the value for `O=S(=O)(O)CCN1CCN(CCO)CC1` [HEPES] was under 1 log; that for `O=S(=O)(O)CCCCN1CCOCC1` [MOBS] was under 1 log.
The same measure, in the same setting: the value for `O=S(=O)(O)CC(O)CN1CCOCC1` (stereo not shown) [MOPSO] was “NONE”.
On to `O=S(=O)(O)CCCN1CCOCC1` [MOPS], for which the log reduction result with Candida albicans was “NONE”.
On to `O=S(=O)(O)CCN1CCN(CCS(=O)(=O)O)CC1` [PIPES], for which, in the series on Candida albicans, the log reduction entry was “NONE”.
In the case of `O=S(=O)(O)CC(O)CNC(CO)(CO)CO` (stereo not shown) [TAPSO], in the series with Candida albicans, the log reduction is reported as 1 log and the “estimated relative antimicrobial activity” value is given as “better activity than phosphate”.
As for `O=S(=O)(O)CCNC(CO)(CO)CO` [TES], in the series on Candida albicans, the log reduction is under 1 log.
Turning to Borate, in the series on Candida albicans, the log reduction is 2-3 log and the “estimated relative antimicrobial activity” value is “superior activity”.

(Values after patent publication US7419944B2, “Aqueous disinfecting systems” (Novartis AG, priority 2000, dated 2008).)
